Measurements: patent publication US20220089575A1, “FARNESOID X RECEPTOR AGONISTS AND USES THEREOF” (Metacrine, Inc., priority 2017, published 2022)
pEC50: −log10 of the molar value.

Biological target: T1, hFXR (Homo sapiens, UniProt Q96RI1)
T1 construct: expressed in transfected cells; host or cells: CV-1 cells
T1 sequence (Q96RI1 1-486): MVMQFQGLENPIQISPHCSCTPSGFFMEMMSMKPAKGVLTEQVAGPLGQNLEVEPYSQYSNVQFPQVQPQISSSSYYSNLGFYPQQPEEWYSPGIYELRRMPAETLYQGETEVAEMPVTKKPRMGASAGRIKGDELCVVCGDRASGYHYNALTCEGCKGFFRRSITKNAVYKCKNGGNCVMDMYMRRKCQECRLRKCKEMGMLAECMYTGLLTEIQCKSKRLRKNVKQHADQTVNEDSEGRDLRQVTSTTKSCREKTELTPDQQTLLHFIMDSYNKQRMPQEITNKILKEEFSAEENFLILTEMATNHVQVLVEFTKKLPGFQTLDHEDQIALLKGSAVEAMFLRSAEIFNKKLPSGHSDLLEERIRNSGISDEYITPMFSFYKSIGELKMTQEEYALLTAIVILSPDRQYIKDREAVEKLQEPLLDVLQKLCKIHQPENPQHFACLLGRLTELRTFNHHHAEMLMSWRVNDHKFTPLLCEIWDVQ
T1 sequence (P19793 1-462 partner): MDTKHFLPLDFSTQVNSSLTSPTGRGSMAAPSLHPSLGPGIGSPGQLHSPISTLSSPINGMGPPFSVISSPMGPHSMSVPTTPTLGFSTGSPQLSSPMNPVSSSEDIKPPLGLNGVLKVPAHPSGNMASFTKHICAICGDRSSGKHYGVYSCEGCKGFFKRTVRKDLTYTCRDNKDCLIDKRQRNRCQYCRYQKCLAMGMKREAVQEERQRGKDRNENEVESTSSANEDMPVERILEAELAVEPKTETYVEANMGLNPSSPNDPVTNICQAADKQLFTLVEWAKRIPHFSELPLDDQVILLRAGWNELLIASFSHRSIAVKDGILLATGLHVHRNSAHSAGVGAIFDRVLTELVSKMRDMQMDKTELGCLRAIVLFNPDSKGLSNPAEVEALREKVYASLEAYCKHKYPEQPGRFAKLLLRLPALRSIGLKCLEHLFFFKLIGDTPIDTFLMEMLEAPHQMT
Test: In Vitro FXR Assay (TK): TK-ECRE-luc reporter in transfected CV-1 cells
Format: cell-based
Conditions: 18 hrs, luminescence, maximum efficacy of <25% of the Fexarmine control classified as '+'
In short: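 CV-1 cells in DMEM with 10% charcoal-stripped FBS were co-transfected with hFXR, hRXR, TK-ECRE-luc reporter and pCMX-YFP plasmids. After 18 h, compounds serially diluted in DMSO were added for a further 18 h, then cells were lysed and luminescence read.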

| pEC50 | Compound |
| --- | --- |
| ≥ 6.60 | COc1ccc([C@H]2CC[C@H](CN(c3cccc(-c4cnc(C5CC5)s4)c3)C(=O)[C@H]3CC[C@H](NC(=O)COCCCO)CC3)CC2)cc1C [Compound 32.03, trans-N-(3-(2-Cyclopropylthiazol-5-yl)phenyl)-4-(2-(3-hydroxypropoxy)acetamido)-N-((trans-4-(4-methoxy-3-methylphenyl)cyclohexyl)methyl)cyclohexanecarboxamide] |
| ≥ 6.60 | COc1ccc([C@H]2CC[C@H](CN(c3cccc(-c4cnc(C5CC5)s4)c3)C(=O)[C@H]3CC[C@H](NC(=O)COCCN(C)C)CC3)CC2)cc1C [Compound 32.04, trans-N-(3-(2-Cyclopropylthiazol-5-yl)phenyl)-4-(2-(2-(dimethylamino)ethoxy)acetamido)-N-((trans-4-(4-methoxy-3-methylphenyl)cyclohexyl)methyl) cyclohexanecarboxamide] |
| 6.00 to 6.60 | COc1ccc([C@H]2CC[C@H](CN(c3cccc(-c4cnc(C5CC5)s4)c3)C(=O)[C@H]3CC[C@H](NC(=O)COCCN)CC3)CC2)cc1C [Compound 32.05, trans-4-(2-(2-Aminoethoxy)acetamido)-N-(3-(2-cyclopropylthiazol-5-yl)phenyl)-N-((trans-4-(4-methoxy-3-methylphenyl)cyclohexyl)methyl) cyclohexanecarboxamide] |
| ≤ 6.00 | CNCCOCC(=O)N[C@H]1CC[C@H](C(=O)N(C[C@H]2CC[C@H](c3ccc(OC)c(C)c3)CC2)c2cccc(-c3cnc(C4CC4)s3)c2)CC1 [Compound 32.06, trans-N-(3-(2-Cyclopropylthiazol-5-yl)phenyl)-N-((trans-4-(4-methoxy-3-methylphenyl)cyclohexyl)methyl)-4-(2-(2-(methylamino)ethoxy)acetamido) cyclohexanecarboxamide] |
| ≥ 6.60 | COc1ccc([C@H]2CC[C@H](CN(c3cccc(-c4cnc(C5CC5)s4)c3)C(=O)[C@H]3CC[C@H](c4nnn[nH]4)CC3)CC2)cc1C [Compound 33, trans-N-(3-(2-Cyclopropylthiazol-5-yl)phenyl)-N-((trans-4-(4-methoxy-3-methylphenyl)cyclohexyl)methyl)-4-(2H-tetrazol-5-yl)cyclohexanecarboxamide] |
| ≥ 6.60 | COc1ccc([C@H]2CC[C@H](CN(c3cccc(-c4cnn(C5CC5)c4)c3)C(=O)[C@H]3CC[C@H](c4nnn[nH]4)CC3)CC2)cc1C [Compound 33.01, trans-N-(3-(1-Cyclopropyl-1H-pyrazol-4-yl)phenyl)-N-((trans-4-(4-methoxy-3-methylphenyl)cyclohexyl)methyl)-4-(2H-tetrazol-5-yl) cyclohexanecarboxamide] |
| ≥ 6.60 | COc1ccc([C@H]2CC[C@H](CN(c3cccc(-c4cnn(C5CC5)c4)c3)C(=O)[C@H]3CC[C@H](c4noc(=O)[nH]4)CC3)CC2)cc1C [Compound 34, trans-N-(3-(1-Cyclopropyl-1H-pyrazol-4-yl)phenyl)-N-((trans-4-(4-methoxy-3-methylphenyl)cyclohexyl)methyl)-4-(5-oxo-4,5-dihydro-1,2,4-oxadiazol-3-yl)cyclohexanecarboxamide] |
